Experimental data reported in US20240174727A1, “LONG-ACTING NATRIURETIC PEPTIDES AND USES THEREOF” (Eli Lilly and Company, priority 2022, published 2024).
Numbered stars: 1 amine (or outer) side, 2 acyl side, 3 side chain; on linkers, the order of the positions; unused ones are H or OH. Bridge positions count the residues as written; N and C are the ends. Square brackets hold non-standard residues; d marks the D form. Peptide text beside a SMILES is read from it. * marks the point of attachment. C20 diacid = O=C(O)CCCCCCCCCCCCCCCCCCC(=O)*; γGlu = O=C(O)[C@H](CCC(=O)[*:2])N[*:1]; 4Pal = N[C@@H](Cc1ccncc1)C(=O)O

The compounds below were run against T1, rat NPRA (Rattus norvegicus, UniProt P18910) (assay: Rat NPRA cGMP activity assay (HTRF) in HEK293 cells overexpressing NPRA). Settings: assay buffer with 0.1% BSA, read-out: cGMP Assay (EC50, pM) w/BSA rNPRA.
T1 construct: Full-Length cDNA Cloning and Generation of Cell Lines Overexpressing Natriuretic Peptide Receptors (NPRs); expressed in transfected cells; host or cells: Jump-in T-Rex HEK293 cells, pJTI R4 CMV-TO MCS pA vector, tetracycline induction
T1 sequence (P18910 29-1057): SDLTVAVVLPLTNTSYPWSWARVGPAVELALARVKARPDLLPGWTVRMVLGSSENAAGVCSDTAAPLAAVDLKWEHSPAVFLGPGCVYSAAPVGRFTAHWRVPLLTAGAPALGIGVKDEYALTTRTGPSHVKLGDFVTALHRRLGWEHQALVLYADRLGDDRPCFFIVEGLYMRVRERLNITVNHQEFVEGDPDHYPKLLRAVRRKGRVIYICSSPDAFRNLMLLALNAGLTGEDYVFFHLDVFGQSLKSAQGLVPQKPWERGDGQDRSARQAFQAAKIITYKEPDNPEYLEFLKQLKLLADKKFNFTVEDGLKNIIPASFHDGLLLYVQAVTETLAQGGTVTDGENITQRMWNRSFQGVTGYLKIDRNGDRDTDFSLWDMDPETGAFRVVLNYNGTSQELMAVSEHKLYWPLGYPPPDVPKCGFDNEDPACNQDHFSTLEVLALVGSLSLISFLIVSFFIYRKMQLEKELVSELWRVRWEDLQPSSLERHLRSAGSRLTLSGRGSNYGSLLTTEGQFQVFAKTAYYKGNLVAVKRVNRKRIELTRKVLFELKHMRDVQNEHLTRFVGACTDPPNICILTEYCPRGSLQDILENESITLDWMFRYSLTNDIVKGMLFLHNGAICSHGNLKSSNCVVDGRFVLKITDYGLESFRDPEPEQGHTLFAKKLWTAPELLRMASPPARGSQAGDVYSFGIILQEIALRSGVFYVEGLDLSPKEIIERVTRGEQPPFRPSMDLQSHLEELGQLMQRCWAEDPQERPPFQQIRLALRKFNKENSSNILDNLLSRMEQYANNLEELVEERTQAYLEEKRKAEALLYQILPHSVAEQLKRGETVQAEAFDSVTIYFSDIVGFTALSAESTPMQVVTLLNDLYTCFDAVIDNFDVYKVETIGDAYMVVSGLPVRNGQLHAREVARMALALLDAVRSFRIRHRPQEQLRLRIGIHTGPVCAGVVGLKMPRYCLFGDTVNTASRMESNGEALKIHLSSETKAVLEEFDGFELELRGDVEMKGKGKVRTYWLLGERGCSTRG
Type: cell-based
Procedure: All sequences were verified by full-length sequencing performed by ACGT DNA Sequencing Services (Wheeling, IL). The target cDNA was cloned into pJTI R4 CMV-TO MCS pA vector and then co-transfected with pJT1R4 Int vector into Jump-in™ T-Rex™ HEK293 cells for mammalian inducible expression using Jump-in™ T-Rex™ HEK293 kit and Lipofectamine LTX and Plus Reagent following manufacturer's protocols, as briefly described below.
Jump-in™ T-Rex™ HEK293 cells were plated in a BioCOAT® poly-D-lysine coated 6-well plate (Becton Dickinson, cat no. 354413) at 1 million cells/well in 2 mL culture medium and incubated for 18 h at 37° C. and 5% CO2 to 50-70% confluence. A cDNA mix was made in a 50 mL tube by adding 1.5 μg target cDNA, 1.5 μg pJT1R4 Int vector, 3 μL Plus Reagent, and 300 μL Opti-MEM I sequentially into the tube. A reagent mix was made in a separate 50 mL tube by adding 7.5 μL Lipofectamine LTX into 300 μL Opti-MEM I. The mixtures were incubated for 5 min at room temperature. The cDNA mix was then transferred into the reagent mix, mixed well, and incubated for additional 30 min at room temperature. A 500 μL of cDNA/Lipofectamine complex was then transferred to the wells of the cell plate in which the culture medium was changed to 2 mL of transfection medium containing DMEM with 4.5 g/L D-glucose supplemented with 10% FBS-HI and 20 mM HEPES. Transfected cells were cultured for 48 h in an incubator at 37° C. and 5% CO2. A subclone or pool from each overexpressing cell line was maintained in culture medium with the addition of 2 mg/mL G418 sulfate for the clone selection based on its built-in resistance to G418 sulfate for at least 3 weeks with medium changed every 2-3 days.
NPRs were overexpressed in T-Rex™ HEK293 cells following the induction with 300 ng/mL tetracycline in culture medium for 48 h. Induced cell lines in an exponential growth phase were treated with 0.05% trypsin-EDTA for a few seconds at room temperature, harvested in cell medium containing FBS to neutralize the trypsin, counted, and cryopreserved at the density of 2 million cells/mL in cell preservation solution containing FBS-HI with 5% DMSO. Cryopreserved cells were stored at −80° C. for a few days prior to transferring to a liquid nitrogen tank. Induced cell lines were then used for suspension assays to measure the activity of polypeptides to stimulate cGMP production in cGMP assays or for the preparation of cell membranes to measure the binding activity of polypeptides in competitive radioligand binding assays, as described below.
Test polypeptides were added starting at 10 μM concentration and at 10-fold decreasing concentrations to obtain 8-point concentration-response curves (i.e., 10 μM to 1 pM). The quantity of cGMP generated was detected using HTRF® technology and normalized to maximum amount produced by 100 nM amidated rat ANP and the minimum amount produced by assay buffer. Detailed steps are outlined below.
Stock solutions of test polypeptides (2 mM) dissolved in DMSO were first diluted 100-fold in assay buffer containing HBSS with Ca^2+ and Mg^2+, 5 mM HEPES, 0.5 mM IBMX, and 0.1% BSA or 0.1% casein (pH 7.4). The polypeptides were further serially diluted in 1:10 dilution steps in assay buffer containing 0.1% BSA or 0.1% casein to generate 8-point 2× working stock solutions ranging from 20 μM to […].
A 10 μL cell suspension containing 4000 cells was plated in Costar® half-area white opaque 96-well plates (Corning, cat no. 3693). Then 10 μL of assay buffer (basal activity), 200 nM of amidated rat ANP (maximum activity) or 2× working stock solutions of test polypeptides were transferred into the plate. Final concentration of DMSO in each well was 0.5%. The plate was shaken for 15 sec and then incubated for 40 min at room temperature.
The cGMP generated was measured using cGMP kit following the manufacturer's directions, as described below.

Q: Which EC50 does the source give for `CC[C@H](C)[C@@H]1NC(=O)[C@H](CCCNC(=N)N)NC(=O)[C@H](CC(=O)O)NC(=O)[C@H]([C@@H](C)CC)NC(=O)[C@H](CCCNC(=N)N)NC(=O)[C@H](CCCCN)NC(=O)CNC(=O)[C@H](Cc2ccccc2)NC(=O)[C@@H](NC(=O)[C@H](CO)NC(=O)[C@H](CO)NC(=O)[C@H](CCCNC(=N)N)NC(=O)[C@H](CCCNC(=N)N)NC(=O)[C@H](Cc2ccncc2)NC(=O)[C@H](CO)NC(=O)CCOCCOCCOCCOCCOCCOCCOCCOCCOCCOCCOCCOCCOCCOCCOCCOCCOCCOCCOCCOCCOCCOCCOCCOCCNC(=O)CNC(=O)[C@H](CCCCN)NC(=O)[C@H](CCC(=O)O)NC(=O)[C@H](CCCCN)NC(=O)[C@H](CCC(=O)O)NC(=O)[C@H](CCCCN)NC(=O)[C@H](CCC(=O)O)NC(=O)CC[C@H](NC(=O)CCCCCCCCCCCCCCCCCCC(=O)O)C(=O)O)CSCSC[C@@H](C(=O)N2CCC[C@H]2C(=O)N[C@@H](CO)C(=O)N[C@@H](Cc2ccccc2)C(=O)N[C@@H](CCCNC(=N)N)C(=O)N[C@@H](Cc2c[nH]cn2)C(=O)NCC(=O)NCC(=O)N[C@@H](CCCCN)C(=O)N[C@@H](CO)C(=O)N[C@@H](CO)C(=O)NCC(=O)N[C@@H](C)C(=O)N2CCC[C@H]2C(=O)N2CCC[C@H]2C(=O)N2CCC[C@H]2C(=O)N[C@@H](CO)C(N)=O)NC(=O)CNC(=O)[C@H](CC(C)C)NC(=O)CNC(=O)[C@H](CO)NC(=O)[C@H](CCC(N)=O)NC(=O)[C@H](Cc2c[nH]cn2)NC(=O)CNC1=O` [Example 109] here?
A: 276000 pM

Q: Which EC50 does the source give for `CC[C@H](C)[C@@H]1NC(=O)[C@H](CCCNC(=N)N)NC(=O)[C@H](CC(=O)O)NC(=O)[C@H]([C@@H](C)CC)NC(=O)[C@H](CCCNC(=N)N)NC(=O)CNC(=O)CNC(=O)[C@H](Cc2ccccc2)NC(=O)[C@@H](NC(=O)[C@H](CO)NC(=O)[C@H](CO)NC(=O)[C@H](CCCNC(=N)N)NC(=O)[C@H](CCCNC(=N)N)NC(=O)[C@H](Cc2ccncc2)NC(=O)[C@H](CO)NC(=O)CNC(=O)[C@H](CCCCN)NC(=O)[C@H](CCC(=O)O)NC(=O)[C@H](CCCCN)NC(=O)[C@H](CCC(=O)O)NC(=O)[C@H](CCCCN)NC(=O)[C@H](CCC(=O)O)NC(=O)CC[C@H](NC(=O)CCCCCCCCCCCCCCCCCCC(=O)O)C(=O)O)CSSC[C@@H](C(=O)N2CCC[C@H]2C(=O)N[C@@H](CO)C(=O)N[C@@H](Cc2ccccc2)C(=O)N[C@@H](CCCNC(=N)N)C(=O)N[C@@H](Cc2c[nH]cn2)C(N)=O)NC(=O)CNC(=O)[C@H](CC(C)C)NC(=O)CNC(=O)[C@H](CO)NC(=O)[C@H](CCC(N)=O)NC(=O)[C@H](C)NC(=O)CNC1=O` [Example 22] ({C20 diacid-γGlu}-EKEKEKGS[4Pal]RRSSCFGGRIDRIGAQSGLGCPSFRH-NH2; disulfide 14-30) here?
A: 192000 pM

Same assay, conditions: assay buffer with 0.1% casein, read-out: cGMP Assay (EC50, pM) w/Casein rNPRA

Q: For `CC[C@H](C)[C@@H]1NC(=O)[C@H](CCCNC(=N)N)NC(=O)[C@H](CC(=O)O)NC(=O)[C@H]([C@@H](C)CC)NC(=O)[C@H](CCCNC(=N)N)NC(=O)[C@H](CCCCN)NC(=O)CNC(=O)[C@H](Cc2ccccc2)NC(=O)[C@@H](NC(=O)[C@H](CO)NC(=O)[C@H](CO)NC(=O)[C@H](CCCNC(=N)N)NC(=O)[C@H](CCCNC(=N)N)NC(=O)[C@H](Cc2ccncc2)NC(=O)[C@H](CO)NC(=O)CCOCCOCCOCCOCCOCCOCCOCCOCCOCCOCCOCCOCCOCCOCCOCCOCCOCCOCCOCCOCCOCCOCCOCCOCCNC(=O)CNC(=O)[C@H](CCCCN)NC(=O)[C@H](CCC(=O)O)NC(=O)[C@H](CCCCN)NC(=O)[C@H](CCC(=O)O)NC(=O)[C@H](CCCCN)NC(=O)[C@H](CCC(=O)O)NC(=O)CC[C@H](NC(=O)CCCCCCCCCCCCCCCCCCC(=O)O)C(=O)O)CSCSC[C@@H](C(=O)N2CCC[C@H]2C(=O)N[C@@H](CO)C(=O)N[C@@H](Cc2ccccc2)C(=O)N[C@@H](CCCNC(=N)N)C(=O)N[C@@H](Cc2c[nH]cn2)C(=O)NCC(=O)NCC(=O)N[C@@H](CCCCN)C(=O)N[C@@H](CO)C(=O)N[C@@H](CO)C(=O)NCC(=O)N[C@@H](C)C(=O)N2CCC[C@H]2C(=O)N2CCC[C@H]2C(=O)N2CCC[C@H]2C(=O)N[C@@H](CO)C(N)=O)NC(=O)CNC(=O)[C@H](CC(C)C)NC(=O)CNC(=O)[C@H](CO)NC(=O)[C@H](CCC(N)=O)NC(=O)[C@H](Cc2c[nH]cn2)NC(=O)CNC1=O` [Example 109], which EC50 is on record?
A: 16800 pM
